In paper PMC7129073 (Clinical Microbiology and Infection, 2015):
In brackets after ≈: the same amount, converted by molar mass. Read-outs that look alike come from different tables or passages of the source.

What was measured:
[1] = tested on: C. jejuni ATCC 33560; assay: VetMIC broth microdilution, QC strain; assay type: cell-based; conditions: Campylobacter jejuni, ATCC33560, read-out: QC limits (MIC)
[2] = tested on: Clostridium difficile; assay: microbe, parasite or virus in culture; assay type: cell-based
[3] = tested on: B. fragilis strains; assay: E-test MIC before and after passages on metronidazole agar; assay type: cell-based; conditions: Bacteroides fragilis
[4] = tested on: F. necrophorum; assay: E-test, 13 clinical isolates; assay type: cell-based, Fusobacterium necrophorum; conditions: for MIC50 / MIC90: Fusobacterium necrophorum
[5] = tested on: Clostridium difficile (CD); assay: Agar dilution MIC, CDAD isolates Montreal; assay type: cell-based; conditions: Clostridioides difficile
[6] = tested on: S. aureus; assay: E-test susceptibility; assay type: cell-based, Staphylococcus aureus
[7] = tested on: Coagulase Negative Staphylococci; assay: E-test susceptibility; assay type: cell-based
[8] = tested on: N.gonorrhoeae; assay: microbe, parasite or virus in culture; assay type: cell-based; conditions: Neisseria gonorrhoeae
[9] = tested on: Acinetobacter; assay: Disk diffusion; assay type: cell-based
[10] = tested on: enterococci; assay: Disk diffusion and E-test, faecal isolates of cancer patients; assay type: cell-based, Enterococcus; conditions: 38 strains; gentamycin: high level
[11] = tested on: Salmonella serotype Typhimurium; assay: Disk diffusion, food isolates Spain; assay type: cell-based; conditions: n = 53
[12] = tested on: Salmonella spp.; assay: Agar dilution susceptibility, gastroenteritis isolates Cuba; assay type: cell-based; conditions: 34 strains, 2002
[13] = tested on: S. pneumoniae (SPN); assay: SENTRY Brazil, NCCLS broth microdilution; assay type: cell-based, Streptococcus pneumoniae
[14] = tested on: S. pyogenes; assay: Broth microdilution; assay type: cell-based, Streptococcus pyogenes; conditions: 212 isolates
[15] = tested on: nontyphoidal Salmonella; assay: Agar dilution, isolates from chickens 1998–2004; assay type: cell-based, Salmonella spp.; conditions: Belgian collection (caecal samples; Belgium, France, Netherlands)
[16] = tested on: Streptococcus pneumoniae; assay: BSAC agar dilution, lower respiratory isolates UK and Ireland; assay type: cell-based
[17] = tested on: enterococci; assay: Disk diffusion, urine isolates of BPH patients; conditions: strains isolated post-operatively
[18] = tested on: H. influenzae (HI); assay: SENTRY Brazil, NCCLS broth microdilution; assay type: cell-based, Haemophilus influenzae
[19] = tested on: viridans group streptococci (VgS) and Streptococcus bovis; assay: Broth microdilution and disk diffusion; assay type: cell-based; conditions: nine species
[20] = tested on: viridans group streptococci (VGS); assay: MIC; assay type: cell-based
[21] = tested on: S. pneumoniae; assay type: cell-based, Streptococcus pneumoniae
[22] = tested on: C. difficile; assay: E-test, isolates from a department of surgery; assay type: cell-based, Clostridium difficile; conditions: Clostridioides difficile, read-out: MIC of high level resistant strains
[23] = tested on: S. pneumoniae; assay: Broth microdilution; assay type: cell-based, Streptococcus pneumoniae; conditions: 275 isolates
[24] = tested on: foreign body infection Staphylococcus epidermidis strains; assay: NCCLS disk diffusion; assay type: cell-based; conditions: 86 strains
[25] = tested on: S. aureus; assay: NCCLS broth microdilution, SSTI isolates; assay type: cell-based; conditions: Staphylococcus aureus
[26] = tested on: inducible Enterobacteriaceae; assay: SMART 2003, intraabdominal isolates; assay type: cell-based; conditions: LA (N=113)
[27] = tested on: Enterobacteriaceae; assay: SMART 2003 Europe, microdilution; assay type: cell-based; conditions: 1948 isolates
[28] = tested on: Pseudomonas aeruginosa (PA); assay: MIC; assay type: cell-based
[29] = tested on: Streptococcus pneumoniae (SPN); assay: MIC; assay type: cell-based; conditions: 8378 isolates
[30] = tested on: S. pneumoniae; assay: SELECT study, levofloxacin-treated RTIs caused by S. pneumoniae; assay type: in vivo, human
[31] = tested on: S. pneumoniae (SPN); assay: NCCLS broth microdilution, fluoroquinolones 1999–2004; assay type: cell-based, Streptococcus pneumoniae; conditions: Streptococcus pneumoniae, read-out: MIC90 during the six years, 1999–2004
[32] = tested on: S. pneumoniae; assay: MIC of invasive strains, Saint George Hospital 2001–2004; assay type: cell-based, Streptococcus pneumoniae
[33] = tested on: Streptococcus pyogenes (SPY); assay: MIC; assay type: cell-based; conditions: 2522 isolates
[34] = tested on: E. coli; assay: SMART 2003 Europe, microdilution; assay type: cell-based, Escherichia coli; conditions: 1106 isolates
[35] = tested on: Haemophilus influenzae (HI); assay: MIC; assay type: cell-based; conditions: 7489 isolates
[36] = tested on: S. pneumoniae; assay: PROTEKT Italy, NCCLS microdilution; assay type: cell-based, Streptococcus pneumoniae
[37] = tested on: Moraxella catarrhalis (MC); assay: MIC; assay type: cell-based; conditions: 2497 isolates
[38] = tested on: Klebsiella; assay: SMART 2003 Europe, microdilution; assay type: cell-based, Klebsiella spp.; conditions: 341 isolates
[39] = tested on: Streptococcus agalactiae strains P0162 and P0425; assay: Microdilution; assay type: cell-based
[40] = ICU, SRGA breakpoints, tigecycline tentative S ≤2 μg/ml

CCN1CCN(c2cc3c(cc2F)c(=O)c(C(=O)O)cn3C2CC2)CC1 [enrofloxacin]
MIC [1]: 0.25 to 0.5 µg/mL (≈ 0.696 to 1.39 µM)

Cc1ncc([N+](=O)[O-])n1CCO [metronidazole]
MIC ([2]; Clostridioides difficile, read-out: MICs of selected resistant isolates): 16 to 64 µg/mL (≈ 93.5 to 374 µM) | prevalence of resistance ([2]; authors' institution): 6% | MIC ([3]; 10 nim-negative clinical isolates): 0.25 to 0.75 µg/mL (≈ 1.46 to 4.38 µM) | MIC ([3]; ATCC25285, ATCC 25285, nim-negative): 0.19 µg/mL (≈ 1.11 µM) | MIC ([3]; four nim-positive reference strains): 3 to 8 µg/mL (≈ 17.5 to 46.7 µM) | MIC ([3]; three nim-positive clinical isolates): > 256 µg/mL | MIC range [4]: 0.016 to 2 µg/mL | MIC50 [4]: 0.125 µg/mL (≈ 0.73 µM) | MIC90 [4]: 0.5 µg/mL (≈ 2.92 µM) | MIC ([5]; read-out: median MIC, 2003–4): 2 µg/mL (≈ 11.7 µM) | MIC ([5]; read-out: median MIC, other ribotypes): 0.5 µg/mL (≈ 2.92 µM)

CO[C@H]1/C=C/O[C@@]2(C)Oc3c(C)c(O)c4c(O)c(c(/C=N/N5CCN(C)CC5)c(O)c4c3C2=O)NC(=O)/C(C)=C\C=C\[C@H](C)[C@H](O)[C@@H](C)[C@@H](O)[C@@H](C)[C@H](OC(C)=O)[C@@H]1C [Rifampicin]
Susceptibility [6, 40]: 99/99% | Susceptibility ([6]; non-ICU): 99/99% | Susceptibility ([7]; ICU): 86% | Susceptibility ([7]; non-ICU): 97%

CN(C)[C@@H]1C(O)=C(C(N)=O)C(=O)[C@@]2(O)C(O)=C3C(=O)c4c(O)cccc4[C@@](C)(O)[C@H]3C[C@@H]12 [tetracycline]
MIC ([8]; strain 76mu6): 8 µg/mL (≈ 18 µM) | MIC ([8]; strain 76mu10): 8 µg/mL (≈ 18 µM) | MIC ([8]; strain 92mu6): 2 µg/mL (≈ 4.5 µM) | MIC ([8]; strain 92mu13): 2 µg/mL (≈ 4.5 µM) | resistant isolates ([9]; 37 isolates selected as resistant to beta-lactams): 100.0% | resistant strains [10]: 55% | resistance rate (NCCLS M100-S13) [11]: 72% | resistance [12]: 53% | % S [13]; 1998: 72% | % S [13]; 1999: 75% | % S [13]; 2000: 82% | % S [13]; 2001: 78% | % S [13]; 2002: 86% | % S [13]; 2003: 85% | nonsusceptible [14]: 25.9% | resistance [15]: 33% | resistance (PEN-NS >0.06, TET-R >1, ERY-R >0.5, CIP-R >2 mg/L) ([16]; Ireland 1999–2000, N 66): 24.2% | resistance (same cut-offs) ([16]; Ireland 2000–2001, N 59): 25.4% | resistance (same cut-offs) ([16]; Ireland 2001–2002, N 68): 16.2% | resistance (same cut-offs) ([16]; Ireland 2002–2003, N 89): 10.1% | resistance (same cut-offs) ([16]; Ireland 2003–2004, N 76): 7.9% | resistance (same cut-offs) ([16]; UK 1999–2000, N 595): 7.2% | resistance (same cut-offs) ([16]; UK 2000–2001, N 608): 6.3% | resistance (same cut-offs) ([16]; UK 2001–2002, N 631): 4.8% | resistance (same cut-offs) ([16]; UK 2002–2003, N 683): 5.7% | resistance (same cut-offs) ([16]; UK 2003–2004, N 709): 6.2% | resistance [17]: 77.8% | % S [18]; 1998: 96% | % S [18]; 1999: 84% | % S [18]; 2000: 95% | % S [18]; 2001: 95% | % S [18]; 2002: 98% | % S [18]; 2003: 96% | % S, range between species [19]: 35.0 – 93.9%

CCC[C@@H]1C[C@@H](C(=O)N[C@@H]([C@H]2O[C@H](SC)[C@H](O)[C@@H](O)[C@H]2O)[C@H](C)Cl)N(C)C1 [clindamycin]
MIC50 [20]: 0.06 µg/mL (≈ 0.141 µM) | MIC90 [20]: 256 µg/mL (≈ 602 µM) | Susceptibility [6, 40]: 99% | Susceptibility ([6]; non-ICU): 96% | resistant [21]: 5% | MIC range [4]: 0.016 to 0.125 µg/mL | MIC50 [4]: 0.032 µg/mL (≈ 0.0753 µM) | MIC90 [4]: 0.064 µg/mL (≈ 0.151 µM) | MIC [22]: > 256 µg/mL | % S [13]; 1998: 94/- % | % S [13]; 1999: 95/- % | % S [13]; 2000: 96/- % | % S [13]; 2001: 95/- % | % S [13]; 2002: 100/- % | % S [13]; 2003: 98/- % | Susceptibility [23]: 91.3% | % resistant [24]: More than 30%

C[C@H]1COc2c(N3CCN(C)CC3)c(F)cc3c(=O)c(C(=O)O)cn1c23 [levofloxacin]
MIC50 [25]: 0.25 µg/mL (≈ 0.692 µM) | % susceptible [26]: 80% | per cent susceptible [27]: 86% | resistant isolates [9]: 78.4% | isolates with MPC ≥ 8 μg/ml [28]: 64% | MPC range ([28]; 10 billion organisms on agar): 2 to 16 µg/mL | MIC range ([28]; patients P1 and P2): 0.25 to 2 µg/mL | MIC90 [29]: 1 ig/ml | MIC50 [20]: 0.5 µg/mL (≈ 1.38 µM) | MIC90 [20]: 1 µg/mL (≈ 2.77 µM) | clinical successes ([30]; 500 mg once or twice daily, 90/100 subjects): 90% | clinical success, PNSSPs ([30]; 44/49): 89.8% | clinical success, PSSPs ([30]; 46/51): 90.2% | died due to initial infection ([30]; eight subjects): 8% | clinical failures ([30]; two subjects): 2% | MIC90 [31]: 1 to 2 µg/mL (≈ 2.77 to 5.53 µM) | % S [32]: 100% | %R [32]: 0% | MIC90 [33]: 1 ig/ml | per cent susceptible [34]: 81% | MIC90 [35]: 0.12 ig/ml | susceptible ([36]; year 1: 2002): 97.3% | susceptible ([36]; year 2: 2003): 97.1% | MIC90 [37]: 0.12 ig/ml | per cent susceptible [38]: 93% | MIC ([39]; strain P0162 (ParC Ser79Phe, GyrA Glu85Ala)): 8 µg/mL (≈ 22.1 µM) | MIC ([39]; strain P0425 (ParC Ser79Phe, GyrA Glu85Lys)): > 32 µg/mL | Susceptibility [23]: 99.6%
